Source: a compilation of properties of binary mixtures (doi:10.1016/j.molliq.2014.08.031)

Experiment: xn = mol fraction of the nth substance listed
Conditions: 101 kPa

CCCC[n+]1ccn(C)c1.CS(=O)(=O)[O-] + O
Conditions | electrical conductivity [S/m] | viscosity [mPa·s]
313.15 K, x2 = 0.5596 | – | 26.8
313.15 K, x2 = 0.6542 | – | 17.83
313.15 K, x2 = 0.7015 | – | 14.43
313.15 K, x2 = 0.704 | 1.07 | –
313.15 K, x2 = 0.7495 | – | 11.11
313.15 K, x2 = 0.785 | 1.89 | –
313.15 K, x2 = 0.796 | 1.98 | –
313.15 K, x2 = 0.8016 | – | 8.17
313.15 K, x2 = 0.8521 | – | 5.48
313.15 K, x2 = 0.861 | 3.55 | –
313.15 K, x2 = 0.9254 | – | 2.67
313.15 K, x2 = 0.929 | 5.27 | –
313.15 K, x2 = 0.9503 | – | 1.854
313.15 K, x2 = 0.951 | 5.76 | –
313.15 K, x2 = 0.968 | 5.4 | –
313.15 K, x2 = 0.975 | – | 1.148
314.15 K, x1 = 0.004 | 1.61 | –
314.15 K, x1 = 0.008 | 2.86 | –
314.15 K, x1 = 0.019 | 4.58 | –
314.15 K, x2 = 0.704 | 1.1 | –
314.15 K, x2 = 0.785 | 1.96 | –
314.15 K, x2 = 0.796 | 2.04 | –
314.15 K, x2 = 0.861 | 3.71 | –
314.15 K, x2 = 0.929 | 5.42 | –
314.15 K, x2 = 0.951 | 5.97 | –
314.15 K, x2 = 0.968 | 5.53 | –
315.15 K, x1 = 0.004 | 1.64 | –
315.15 K, x1 = 0.008 | 2.91 | –
315.15 K, x1 = 0.019 | 4.65 | –
315.15 K, x2 = 0.704 | 1.14 | –
315.15 K, x2 = 0.785 | 2.02 | –
315.15 K, x2 = 0.796 | 2.11 | –
315.15 K, x2 = 0.861 | 3.75 | –
315.15 K, x2 = 0.892 | 4.58 | –
315.15 K, x2 = 0.929 | 5.54 | –
315.15 K, x2 = 0.951 | 6.11 | –
316.15 K, x1 = 0.004 | 1.67 | –
316.15 K, x1 = 0.008 | 2.97 | –
316.15 K, x1 = 0.019 | 4.73 | –
316.15 K, x2 = 0.704 | 1.18 | –
316.15 K, x2 = 0.796 | 2.17 | –
316.15 K, x2 = 0.861 | 3.84 | –
316.15 K, x2 = 0.892 | 4.75 | –
316.15 K, x2 = 0.929 | 5.63 | –
316.15 K, x2 = 0.968 | 5.71 | –
317.15 K, x1 = 0.008 | 3 | –
317.15 K, x1 = 0.019 | 4.82 | –
317.15 K, x2 = 0.704 | 1.22 | –
317.15 K, x2 = 0.785 | 2.1 | –
317.15 K, x2 = 0.796 | 2.22 | –
317.15 K, x2 = 0.861 | 3.94 | –
317.15 K, x2 = 0.892 | 4.86 | –
317.15 K, x2 = 0.929 | 5.78 | –
318.15 K, x1 = 0.004 | 1.72 | –
318.15 K, x1 = 0.008 | 3.06 | –
318.15 K, x1 = 0.019 | 4.92 | –
318.15 K, x2 = 0.704 | 1.27 | –
318.15 K, x2 = 0.785 | 2.15 | –
318.15 K, x2 = 0.796 | 2.29 | –
318.15 K, x2 = 0.861 | 4.05 | –
318.15 K, x2 = 0.892 | 4.99 | –
318.15 K, x2 = 0.951 | 6.37 | –
318.15 K, x2 = 0.968 | 5.94 | –
319.15 K, x1 = 0.004 | 1.76 | –
319.15 K, x1 = 0.008 | 3.11 | –
319.15 K, x1 = 0.019 | 5.07 | –
319.15 K, x2 = 0.785 | 2.21 | –
319.15 K, x2 = 0.796 | 2.35 | –
319.15 K, x2 = 0.892 | 5.12 | –
319.15 K, x2 = 0.929 | 6.06 | –
319.15 K, x2 = 0.951 | 6.73 | –
320.15 K, x1 = 0.008 | 3.17 | –
320.15 K, x2 = 0.785 | 2.28 | –
320.15 K, x2 = 0.796 | 2.4 | –
320.15 K, x2 = 0.861 | 4.25 | –
320.15 K, x2 = 0.929 | 6.2 | –
320.15 K, x2 = 0.951 | 6.7 | –
321.15 K, x1 = 0.004 | 1.82 | –
321.15 K, x1 = 0.008 | 3.21 | –
321.15 K, x1 = 0.019 | 5.2 | –
321.15 K, x2 = 0.704 | 1.39 | –
321.15 K, x2 = 0.785 | 2.36 | –
321.15 K, x2 = 0.861 | 4.38 | –
321.15 K, x2 = 0.892 | 5.35 | –
321.15 K, x2 = 0.929 | 6.32 | –
321.15 K, x2 = 0.951 | 6.78 | –
322.15 K, x1 = 0.004 | 1.85 | –
322.15 K, x1 = 0.008 | 3.28 | –
322.15 K, x1 = 0.019 | 5.28 | –
322.15 K, x2 = 0.785 | 2.44 | –
322.15 K, x2 = 0.861 | 4.47 | –
322.15 K, x2 = 0.951 | 6.94 | –
322.15 K, x2 = 0.968 | 6.41 | –
323.15 K, x1 = 0.004 | 1.88 | –
323.15 K, x1 = 0.008 | 3.33 | –
323.15 K, x1 = 0.019 | 5.4 | –
323.15 K, x2 = 0.5596 | – | 19
323.15 K, x2 = 0.6542 | – | 12.84
323.15 K, x2 = 0.7015 | – | 10.57
323.15 K, x2 = 0.704 | 1.49 | –
323.15 K, x2 = 0.7495 | – | 8.22
323.15 K, x2 = 0.796 | 2.62 | –
323.15 K, x2 = 0.8521 | – | 4.18
323.15 K, x2 = 0.861 | 4.6 | –
323.15 K, x2 = 0.892 | 5.62 | –
323.15 K, x2 = 0.9004 | – | 2.87
323.15 K, x2 = 0.9254 | – | 2.13
323.15 K, x2 = 0.929 | 6.51 | –
323.15 K, x2 = 0.968 | 6.56 | –
323.15 K, x2 = 0.975 | – | 0.939
324.15 K, x2 = 0.704 | 1.54 | –
324.15 K, x2 = 0.785 | 2.57 | –
324.15 K, x2 = 0.796 | 2.68 | –
324.15 K, x2 = 0.861 | 4.7 | –
324.15 K, x2 = 0.929 | 6.65 | –
324.15 K, x2 = 0.951 | 7.19 | –
324.15 K, x2 = 0.968 | 6.6 | –
325.15 K, x1 = 0.004 | 1.94 | –
325.15 K, x2 = 0.785 | 2.63 | –
325.15 K, x2 = 0.861 | 4.82 | –
325.15 K, x2 = 0.892 | 5.85 | –
325.15 K, x2 = 0.951 | 7.31 | –
325.15 K, x2 = 0.968 | 6.74 | –
326.15 K, x1 = 0.008 | 3.43 | –
326.15 K, x1 = 0.019 | 5.63 | –
326.15 K, x2 = 0.704 | 1.63 | –
326.15 K, x2 = 0.785 | 2.7 | –
326.15 K, x2 = 0.796 | 2.83 | –
326.15 K, x2 = 0.861 | 4.9 | –
326.15 K, x2 = 0.892 | 5.98 | –
327.15 K, x1 = 0.004 | 1.99 | –
327.15 K, x1 = 0.008 | 3.54 | –
327.15 K, x1 = 0.019 | 5.55 | –
327.15 K, x2 = 0.785 | 2.75 | –
327.15 K, x2 = 0.796 | 2.9 | –
327.15 K, x2 = 0.892 | 6.11 | –
327.15 K, x2 = 0.968 | 6.87 | –
328.15 K, x1 = 0.004 | 2.01 | –
328.15 K, x1 = 0.008 | 3.6 | –
328.15 K, x2 = 0.704 | 1.74 | –
328.15 K, x2 = 0.785 | 2.83 | –
